Assay results reported in US8927600B2, “Compound for use in the treatment of peripheral neuropathies” (Biocodex, priority 2009, dated 2015).
“Also recorded” adds a separate entry of the source.

Experiments:
[1] = system: sensitive neurons extracted from rat embryo dorsal spinal ganglions; assay: in vitro model of peripheral neuropathy (cisplatin), overall neuroprotective activity; assay type: cell-based; settings: stiripentol 1-10 μM versus NGF 5 ng/ml; cisplatin 4.5 μg/ml, 24 hours
Method: (§1) To be more precise, they studied the survival of sensitive neurons extracted from rat embryo dorsal spinal ganglions cultured in the presence of a cytotoxic agent, cisplatin, co-applied with stiripentol.
(§2) The co-culturing, for 5 days, of sensitive neurons (˜5-10% of the cultivated cell population) associated with Schwann cells and fibroblasts (˜95-90% of the cultivated cell population) is carried out in an appropriate medium as described in Hall et al. (1997) J. Neurosci. 17:2775-2784. […]
(§3) The density of the neuritic networks (axons and dendrites) labelled by an anti-β-tubulin antibody (ref T8660, Sigma, France) is then determined by measuring their length, together with the number of cell bodies marked by means of an anti-MAP2 antibody (ref M4403, Sigma, France) as indicated by Gill & Windebank (1998) J. Clin. Invest. […] Also determined is the amount of lactate dehydrogenase (LDH) (Kit de detection (detection kit), ref 1 644 793, Roche) released in the extracellular medium, the amount of which is proportional to the number of cells which are damaged or dead owing to the cisplatin-induced cell lysis, as indicated by Koh & Choi (1987) J Neurosci Methods 20:83-90.

CYP3A4 = CYP3A4 (Homo sapiens, UniProt P08684); settings: Tran et al. (1997); cited from earlier work
CYP3A4, sequence (P08684 whole entry): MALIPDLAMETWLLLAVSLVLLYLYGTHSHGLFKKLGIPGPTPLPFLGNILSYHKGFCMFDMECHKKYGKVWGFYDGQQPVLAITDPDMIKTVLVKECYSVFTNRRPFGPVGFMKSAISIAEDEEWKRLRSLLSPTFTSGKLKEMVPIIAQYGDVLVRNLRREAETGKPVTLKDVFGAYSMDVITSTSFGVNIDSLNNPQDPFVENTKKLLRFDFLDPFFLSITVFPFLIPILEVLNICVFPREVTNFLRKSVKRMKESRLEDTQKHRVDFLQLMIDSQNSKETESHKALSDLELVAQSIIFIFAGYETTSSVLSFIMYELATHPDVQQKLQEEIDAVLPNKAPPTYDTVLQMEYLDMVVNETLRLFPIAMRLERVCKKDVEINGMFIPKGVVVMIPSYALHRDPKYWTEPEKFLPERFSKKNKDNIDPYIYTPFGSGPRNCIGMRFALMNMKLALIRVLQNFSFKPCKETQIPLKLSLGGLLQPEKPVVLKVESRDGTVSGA

[2] = system: sensitive neurons extracted from rat embryo dorsal spinal ganglions; assay: lactate dehydrogenase (LDH) released in the extracellular medium of the co-culture with or without cisplatin; assay type: cell-based; settings: 24 hours, FIG. 3
Method: as §1, §2, §3

[3] = system: sensitive neurons extracted from rat embryo dorsal spinal ganglions; assay: density of neuritic networks (total neurite length, anti-β-tubulin labelling) in sensitive neuron co-culture with or without cisplatin; assay type: cell-based; settings: 24 hours, FIG. 1
Method: as §1, §2, §3

[4] = system: uptake of gamma-aminobutyric acid (GABA); settings: cited from earlier work
CYP1A2 = CYP1A2 (Homo sapiens, UniProt P05177); settings: Tran et al. (1997); cited from earlier work
CYP1A2, sequence (P05177 whole entry): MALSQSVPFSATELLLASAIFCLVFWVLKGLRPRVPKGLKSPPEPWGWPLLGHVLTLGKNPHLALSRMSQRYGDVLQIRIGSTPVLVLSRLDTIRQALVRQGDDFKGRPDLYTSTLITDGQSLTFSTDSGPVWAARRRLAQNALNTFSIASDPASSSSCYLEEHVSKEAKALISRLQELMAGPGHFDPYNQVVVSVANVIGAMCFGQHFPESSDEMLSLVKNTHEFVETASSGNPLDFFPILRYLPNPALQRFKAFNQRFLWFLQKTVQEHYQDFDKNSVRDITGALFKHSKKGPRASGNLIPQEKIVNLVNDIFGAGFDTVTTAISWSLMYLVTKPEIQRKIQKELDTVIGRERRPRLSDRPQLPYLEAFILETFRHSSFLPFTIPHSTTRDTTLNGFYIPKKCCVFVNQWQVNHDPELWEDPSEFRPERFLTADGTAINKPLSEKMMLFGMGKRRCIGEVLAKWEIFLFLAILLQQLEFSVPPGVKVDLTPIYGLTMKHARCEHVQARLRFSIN

[5] = system: sensitive neurons extracted from rat embryo dorsal spinal ganglions; assay: number of cell bodies (anti-MAP2 labelling) in sensitive neuron co-culture with or without cisplatin; assay type: cell-based; settings: 24 hours, FIG. 2
Method: as §1, §2, §3

[6] = in the presence of cisplatin 4.5 μg/ml, stiripentol 1, 3, 10 μM, NGF 5 ng/ml

SMILES | neuroprotective activity compared with NGF [1] | inhibition of CYP3A4 (CYP3A4) | cell release of LDH [2, 6] | density of the neuritic networks (total length of the neurites) [3, 6] | inhibition of the uptake of gamma-aminobutyric acid (GABA) [4] | inhibition of CYP1A2 (CYP1A2) | number of neuronal cell bodies [5, 6] | effect of cisplatin on cell lysis (LDH release) ([2]; cisplatin 4.5 μg/ml alone) | effect of cisplatin on the density of the neuritic networks ([3]; cisplatin 4.5 μg/ml alone) | effect of cisplatin on the cell bodies ([5]; cisplatin 4.5 μg/ml alone)
CC(C)(C)C(O)/C=C/c1ccc2c(c1)OCO2 (stereo not shown) [stiripentol, 4,4-dimethyl-1-[(3,4-methylenedioxy)-phenyl]-1-penten-3-ol] | neuroprotective effect equivalent to that of NGF; also recorded: neuroprotective activity of the same order as that of NGF | inhibitor | neuroprotective effect | reduce the decrease in the density of the neuritic networks | inhibits the uptake of gamma-aminobutyric acid (GABA) | inhibitor | reduce the decrease |  |  | 
N.N.[Cl][Pt][Cl] [cisplatin] |  |  |  |  |  |  |  | cell lysis | reduction in the density of the neuritic networks | degeneration of the cell bodies
